#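 How tested: cells in 96-well plates exposed to compound for 48 hours at five concentrations. GI50 = concentration required for 50% inhibition of growth. Definition used: TGI = concentration required for complete inhibition of growth.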
# Tests used:
# Assay in all cases: inhibition of tumour cell growth, NCI panel, 48 h
# 786-0 renal = system: 786-0 renal
# IGROV1 ovarian = system: IGROV1 ovarian
# T-47D breast = system: T-47D breast
# SK-MEL-2 melanoma = system: SK-MEL-2 melanoma
# MCF7 breast = system: MCF7 breast
# HCC-2998 colon = system: HCC-2998 colon
# HS 578T breast = system: HS 578T breast
# MDA-MB-435 = system: MDA-MB-435
# MALME-3M melanoma = system: MALME-3M melanoma
# OVCAR-5 ovarian = system: OVCAR-5 ovarian
# K-562 leukemia = system: K-562 leukemia
# NCI-H460 lung = system: NCI-H460 lung
# HT29 colon = system: HT29 colon
# OVCAR-8 ovarian = system: OVCAR-8 ovarian
# U251 CNS = system: U251 CNS
# EKVX NSCLC = system: EKVX NSCLC
# CCRF-CEM leukemia = system: CCRF-CEM leukemia
# NCI-H522 lung = system: NCI-H522 lung
# KM12 colon = system: KM12 colon
# NCI-H23 lung = system: NCI-H23 lung
# LOX IMVI melanoma = system: LOX IMVI melanoma
# HOP-62 NSCLC = system: HOP-62 NSCLC
# HOP-92 NSCLC = system: HOP-92 NSCLC
# M14 melanoma = system: M14 melanoma
# MOLT-4 leukemia = system: MOLT-4 leukemia
# CAKI-1 renal = system: CAKI-1 renal
# HCT-15 colon = system: HCT-15 colon
# SN12C renal = system: SN12C renal
# PC-3 prostate = system: PC-3 prostate
# UACC-257 melanoma = system: UACC-257 melanoma
# SF-295 CNS = system: SF-295 CNS
# RXF 393 renal = system: RXF 393 renal
# RPMI-8226 leukemia = system: RPMI-8226 leukemia
# SF-539 CNS = system: SF-539 CNS
# MDA-MB-468 breast = system: MDA-MB-468 breast
# SK-MEL-28 melanoma = system: SK-MEL-28 melanoma
# SW-620 colon = system: SW-620 colon
# SK-OV-3 ovarian = system: SK-OV-3 ovarian
# A549 NSCLC = system: A549 NSCLC
# COLO 205 colon = system: COLO 205 colon
# SNB-19 CNS = system: SNB-19 CNS
# ACHN renal = system: ACHN renal
# UACC-62 melanoma = system: UACC-62 melanoma
# NCI-H226 lung = system: NCI-H226 lung
# OVCAR-4 ovarian = system: OVCAR-4 ovarian
# UO-31 renal = system: UO-31 renal
# MDA-MB-231 breast = system: MDA-MB-231 breast
# TK-10 renal = system: TK-10 renal
# SK-MEL-5 melanoma = system: SK-MEL-5 melanoma
# SR leukemia = system: SR leukemia
# A498 renal = system: A498 renal
# SF-268 CNS = system: SF-268 CNS
# BT-549 breast = system: BT-549 breast
# SNB-75 CNS = system: SNB-75 CNS
# DU-145 prostate = system: DU-145 prostate
# NCI/ADR-RES ovarian = system: NCI/ADR-RES ovarian
# HCT-116 colon = system: HCT-116 colon
# OVCAR-3 ovarian = system: OVCAR-3 ovarian
# HL-60(TB) leukemia = system: HL-60(TB) leukemia
structure (smiles),measurement,setting,value
N#Cc1c(NC(=O)c2ccc(C(F)(F)F)cc2)sc2c1CCC(=O)C2,GI50,786-0 renal,2.5 µM
same,TGI,786-0 renal,> 41.2 µM
same,GI50,IGROV1 ovarian,1.23 µM
same,TGI,IGROV1 ovarian,2.74 µM
same,GI50,T-47D breast,0.322 µM
same,TGI,T-47D breast,1.38 µM
same,GI50,SK-MEL-2 melanoma,2.07 µM
same,TGI,SK-MEL-2 melanoma,4.89 µM
same,GI50,MCF7 breast,0.553 µM
same,TGI,MCF7 breast,10.1 µM
same,GI50,HCC-2998 colon,1.43 µM
same,TGI,HCC-2998 colon,2.93 µM
same,GI50,HS 578T breast,1.17 µM
same,TGI,HS 578T breast,5.02 µM
same,GI50,MDA-MB-435,1.4 µM
same,TGI,MDA-MB-435,2.97 µM
same,GI50,MALME-3M melanoma,1.15 µM
same,TGI,MALME-3M melanoma,2.73 µM
same,GI50,OVCAR-5 ovarian,1.68 µM
same,TGI,OVCAR-5 ovarian,3.5 µM
same,GI50,K-562 leukemia,0.316 µM
same,GI50,NCI-H460 lung,2.86 µM
same,TGI,NCI-H460 lung,11.8 µM
same,GI50,HT29 colon,0.465 µM
same,TGI,HT29 colon,2.06 µM
same,GI50,OVCAR-8 ovarian,1.39 µM
same,TGI,OVCAR-8 ovarian,5.9 µM
same,GI50,U251 CNS,0.622 µM
same,TGI,U251 CNS,2.47 µM
same,GI50,EKVX NSCLC,1.32 µM
same,TGI,EKVX NSCLC,3.66 µM
same,GI50,CCRF-CEM leukemia,0.345 µM
same,TGI,CCRF-CEM leukemia,> 33.3 µM
same,GI50,NCI-H522 lung,0.273 µM
same,TGI,NCI-H522 lung,0.951 µM
same,GI50,KM12 colon,1.28 µM
same,TGI,KM12 colon,4.7 µM
same,GI50,NCI-H23 lung,0.402 µM
same,TGI,NCI-H23 lung,2.09 µM
same,GI50,LOX IMVI melanoma,0.35 µM
same,TGI,LOX IMVI melanoma,1.48 µM
same,GI50,HOP-62 NSCLC,2.84 µM
same,TGI,HOP-62 NSCLC,11.4 µM
same,GI50,HOP-92 NSCLC,1.19 µM
same,TGI,HOP-92 NSCLC,3.56 µM
same,GI50,M14 melanoma,1.01 µM
same,TGI,M14 melanoma,2.85 µM
same,GI50,MOLT-4 leukemia,0.419 µM
same,TGI,MOLT-4 leukemia,> 30.1 µM
same,GI50,CAKI-1 renal,0.572 µM
same,TGI,CAKI-1 renal,2.06 µM
same,GI50,HCT-15 colon,0.362 µM
same,TGI,HCT-15 colon,1.45 µM
same,GI50,SN12C renal,0.539 µM
same,TGI,SN12C renal,3.2 µM
same,GI50,PC-3 prostate,0.41 µM
same,TGI,PC-3 prostate,2.79 µM
same,GI50,UACC-257 melanoma,2.15 µM
same,TGI,UACC-257 melanoma,> 22.8 µM
same,GI50,SF-295 CNS,1.29 µM
same,TGI,SF-295 CNS,2.96 µM
same,GI50,RXF 393 renal,0.271 µM
same,TGI,RXF 393 renal,1.23 µM
same,GI50,RPMI-8226 leukemia,0.273 µM
same,TGI,RPMI-8226 leukemia,> 100 µM
same,GI50,SF-539 CNS,0.3 µM
same,TGI,SF-539 CNS,1.06 µM
same,GI50,MDA-MB-468 breast,0.557 µM
same,TGI,MDA-MB-468 breast,2.27 µM
same,GI50,SK-MEL-28 melanoma,0.82 µM
same,TGI,SK-MEL-28 melanoma,2.11 µM
same,GI50,SW-620 colon,0.411 µM
same,TGI,SW-620 colon,1.82 µM
same,GI50,SK-OV-3 ovarian,2.43 µM
same,TGI,SK-OV-3 ovarian,6.87 µM
same,GI50,A549 NSCLC,3.52 µM
same,TGI,A549 NSCLC,16.3 µM
same,GI50,COLO 205 colon,0.951 µM
same,TGI,COLO 205 colon,2.33 µM
same,GI50,SNB-19 CNS,2.2 µM
same,TGI,SNB-19 CNS,13.1 µM
same,GI50,ACHN renal,0.39 µM
same,TGI,ACHN renal,1.4 µM
same,GI50,UACC-62 melanoma,0.691 µM
same,TGI,UACC-62 melanoma,2 µM
same,GI50,NCI-H226 lung,2.18 µM
same,TGI,NCI-H226 lung,7.91 µM
same,GI50,OVCAR-4 ovarian,1.12 µM
same,TGI,OVCAR-4 ovarian,2.78 µM
same,GI50,UO-31 renal,0.467 µM
same,TGI,UO-31 renal,1.7 µM
same,GI50,MDA-MB-231 breast,0.701 µM
same,TGI,MDA-MB-231 breast,1.98 µM
same,GI50,TK-10 renal,1.05 µM
same,TGI,TK-10 renal,6.85 µM
same,GI50,SK-MEL-5 melanoma,1.35 µM
same,TGI,SK-MEL-5 melanoma,2.64 µM
same,GI50,SR leukemia,0.522 µM
same,TGI,SR leukemia,> 100 µM
same,GI50,A498 renal,24.6 µM
same,TGI,A498 renal,87.5 µM
same,GI50,SF-268 CNS,2.16 µM
same,TGI,SF-268 CNS,11.5 µM
same,GI50,BT-549 breast,1.07 µM
same,TGI,BT-549 breast,2.51 µM
same,GI50,SNB-75 CNS,1.91 µM
same,TGI,SNB-75 CNS,5.25 µM
same,GI50,DU-145 prostate,3.75 µM
same,TGI,DU-145 prostate,> 100 µM
same,GI50,NCI/ADR-RES ovarian,0.718 µM
same,TGI,NCI/ADR-RES ovarian,2.93 µM
same,GI50,HCT-116 colon,0.359 µM
same,TGI,HCT-116 colon,2.09 µM
same,GI50,OVCAR-3 ovarian,0.844 µM
same,TGI,OVCAR-3 ovarian,3.2 µM
same,GI50,HL-60(TB) leukemia,0.436 µM
same,TGI,HL-60(TB) leukemia,> 33.2 µM

# Source: PubChem BioAssay (NCI)
